Data as given in ChEMBL document CHEMBL5512603, “Development of de-novo coronavirus 3-chymotrypsin-like protease (3CLpro) inhibitors since COVID-19 outbreak: A strategy to tackle challenges of persistent virus infection” (Eur J Med Chem, 2024).

How the values were obtained:
[1] = target: T1, Replicase polyprotein 1ab (Severe acute respiratory syndrome coronavirus 2, UniProt P0DTD1); assay: Inhibition of SARS-CoV-2 recombinant 3CLpro using fluorogenic substrate (Dabcyl-KTSAVLQ]SGFRK M-E
[2] = target: T1, Replicase polyprotein 1ab; assay: Inhibition of SARS-CoV-2 3CLp using fluorescent substrate by FRET assay
SARS-CoV-2 [3] = assay: Antiviral activity against SARS-CoV-2; assay type: functional, organism-based; details: Severe acute respiratory syndrome coronavirus 2
SARS-CoV-2 [4] = assay: Antiviral activity against SARS-CoV-2 infected in African green monkey Vero E6 cells assessed as inhibition of virus induced cytopathic effect by CellTiter-Glo luminescent cell viability assay; assay type: functional, organism-based; details: Severe acute respiratory syndrome coronavirus 2, Vero C1008
[5] = target: von Hippel-Lindau disease tumor suppressor-SARS-Cov-2 polyprotein (Severe acute respiratory syndrome coronavirus 2, UniProt P0DTD1+P40337); assay: PROTAC activity at SARS-CoV-2 Main protease/VHL (unknown origin) in SARS-CoV-2 infected african green monkey Vero cell assessed as inhibition of virus-mediated cytopathic effect measured after 72 hrs; assay type: cell-based
Sequence of von Hippel-Lindau disease tumor suppressor-SARS-Cov-2 polyprotein (P40337 whole entry, other chains not shown): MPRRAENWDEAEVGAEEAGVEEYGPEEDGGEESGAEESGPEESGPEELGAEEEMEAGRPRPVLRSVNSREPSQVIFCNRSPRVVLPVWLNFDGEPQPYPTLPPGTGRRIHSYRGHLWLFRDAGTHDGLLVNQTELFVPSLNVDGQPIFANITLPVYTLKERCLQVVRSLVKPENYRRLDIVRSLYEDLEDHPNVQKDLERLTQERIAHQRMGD

[6] = target: T1, Replicase polyprotein 1ab; assay: Inhibition of 2019-nCoV-2 3CLp using fluorescent substrate by FRET assay
[7] = Cytotoxicity against African green monkey Vero E6 cells; assay type: toxicity, cell-based, Vero C1008; details: chlorocebus sabaeus
[8] = target: T1, Replicase polyprotein 1ab; assay: Inhibition of recombinant SARS-CoV2 6xHis-tag-Main protease containing modified HRV-3C expressed in Escherichia coli using Mca-AVLQSGFR-K(Dnp)K peptide substrate assessed as fluorescent intensity
[9] = Oral bioavailability in Sprague-Dawley rat at 20 mg/kg; assay type: ADME, organism-based; details: in vivo
SARS-CoV-2 [10] = assay: Antiviral activity against SARS-CoV-2 infected in African green monkey Vero E6 cells at 0.1 MOI assessed as inhibition of virus induced cytopathic effect by CCK8 assay; assay type: functional, organism-based; details: Severe acute respiratory syndrome coronavirus 2, Vero C1008
SARS-CoV-2 [11] = assay: Antiviral activity against SARS-CoV-2 infected in HAPEpIC cells at 0.01 MOI assessed as reduction in viral RNA copies by RT-qPCR analysis; assay type: functional, organism-based; details: Severe acute respiratory syndrome coronavirus 2
[12] = Bioavailability in Sprague-Dawley rat at 20 mg/kg, ip; assay type: ADME, organism-based; details: in vivo
[13] = target: Protein cereblon/Replicase polyprotein 1ab (Severe acute respiratory syndrome coronavirus 2, UniProt P0DTD1+Q96SW2); assay: PROTAC activity at SARS-CoV-2 Main protease/CRBN (unknown origin) in SARS-CoV-2 infected african green monkey Vero cell assessed as inhibition of virus-mediated cytopathic effect measured after 72 hrs; assay type: cell-based
Sequence of Protein cereblon/Replicase polyprotein 1ab (Q96SW2 whole entry, other chains not shown): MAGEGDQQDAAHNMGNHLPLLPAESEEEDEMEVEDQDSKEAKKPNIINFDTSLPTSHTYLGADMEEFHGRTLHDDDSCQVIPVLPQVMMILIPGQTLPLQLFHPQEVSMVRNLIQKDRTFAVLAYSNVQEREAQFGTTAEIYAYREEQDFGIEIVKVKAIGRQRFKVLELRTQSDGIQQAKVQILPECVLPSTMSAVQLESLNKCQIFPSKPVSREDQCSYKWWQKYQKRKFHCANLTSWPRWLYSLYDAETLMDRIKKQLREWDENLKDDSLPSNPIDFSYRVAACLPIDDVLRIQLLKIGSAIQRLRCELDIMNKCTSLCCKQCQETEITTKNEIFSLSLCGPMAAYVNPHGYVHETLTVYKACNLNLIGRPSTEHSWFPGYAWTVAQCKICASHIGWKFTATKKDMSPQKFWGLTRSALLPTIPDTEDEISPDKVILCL

SARS-CoV-2 [14] = assay: Antiviral activity against SARS-CoV-2 infected in African green monkey Vero E6 cells assessed as inhibition of viral replication incubated by plaque reduction assay; assay type: functional, organism-based; details: Severe acute respiratory syndrome coronavirus 2, Vero C1008
[15] = target: T1, Replicase polyprotein 1ab; assay: Inhibition of recombinant SARS-CoV-2 3CLp using fluorogenic substrate by microplate reader
[16] = Oral bioavailability in Sprague-Dawley rat at 10 mg/kg; assay type: ADME, organism-based; details: in vivo
SARS-CoV-2 [17] = assay: Antiviral activity against SARS-CoV-2 Delta; assay type: functional; details: Severe acute respiratory syndrome coronavirus 2, Delta

CNC(=O)c1cc(C)cc([N+](=O)[O-])c1N1CC[C@]2(CCN(C(=O)c3cncc4cc(O)ccc34)C2)C1
IC50 [1]: 49500 nM

CC(C)CCOc1cc(O)c2c(=O)c(O)c(-c3cc(O)c(O)c(O)c3)oc2c1
IC50 [2]: 1920 nM
EC50 (SARS-CoV-2 [3]): 31500 nM

CCOc1cc(O)c2c(=O)c(O)c(-c3cc(O)c(O)c(O)c3)oc2c1
IC50 [2]: 740 nM
EC50 (SARS-CoV-2 [3]): 51000 nM

CC(C)[C@H]1C(=O)N2C[C@]3(C[C@H]2C#N)C(=O)Nc2ccc(cc23)CCCCCN1C(=O)c1cc2c(F)cc(F)cc2[nH]1
EC50 (SARS-CoV-2 [4]): < 100 nM
IC50 [2]: < 100 nM

Cc1ncsc1-c1ccc(CNC(=O)[C@@H]2C[C@@H](O)CN2C(=O)[C@@H](NC(=O)CCOCCOCCOCCn2nnc(COc3ccc(OC(=O)N[C@@H](CC(C)C)C(=O)N[C@H](C=O)C[C@@H]4CCNC4=O)cc3)c2C)C(C)(C)C)cc1
EC50 [5]: 80 nM

CNC(=O)c1cc(Br)cc([N+](=O)[O-])c1N[C@@H]1CCC[C@H](NC(=O)c2cncc3cccc(O)c23)C1
IC50 [1]: 62500 nM

CC(C)(C)NC(=O)[C@@H](c1cnccn1)N(C(=O)c1ccco1)c1ccc(-c2ccccc2)cc1
IC50 [6]: 280 nM
CC50 [7]: > 200000 nM

CC(C)[C@H]1C(=O)N2C[C@]3(C[C@H]2C#N)C(=O)Nc2ccc(cc23)CCCCCN1C(=O)C1CN(c2ccccc2)N=N1 (stereo partly drawn)
EC50 (SARS-CoV-2 [4]): < 100 nM
IC50 [2]: < 100 nM

Cc1ncsc1-c1ccc(CNC(=O)[C@@H]2C[C@@H](O)CN2C(=O)[C@@H](NC(=O)CCOCCOCCOCCn2nnc(COC3CCC(OC(=O)N[C@@H](CC(C)C)C(=O)N[C@H](C=O)C[C@@H]4CCNC4=O)CC3)c2C)C(C)(C)C)cc1 (stereo partly drawn)
EC50 [5]: 350 nM

CC(C)[C@H]1C(=O)N2C[C@]3(C[C@H]2C#N)C(=O)Nc2ccc(cc23)CCCCCN1C(=O)c1cc2ccc(C(F)(F)F)cc2[nH]1
EC50 (SARS-CoV-2 [4]): < 100 nM
IC50 [2]: 100 nM

O=c1c2cccc(Br)c2sn1-c1ccccc1
IC50 [8]: > 100000 nM

CC1COP(=O)(Oc2cc(O)c3c(=O)c(O)c(-c4cc(O)c(O)c(O)c4)oc3c2)OC1 (stereo not drawn)
IC50 [2]: 6620 nM
EC50 (SARS-CoV-2 [3]): 33400 nM

O=C1c2c(O)cc(OP(=O)(Oc3ccccc3)Oc3ccccc3)cc2O[C@H](c2cc(O)c(O)c(O)c2)[C@H]1O
EC50 (SARS-CoV-2 [3]): 9030 nM

O=c1c(O)c(-c2cc(O)c(O)c(O)c2)oc2cc(OCC3CCCC3)cc(O)c12
IC50 [2]: 2450 nM
EC50 (SARS-CoV-2 [3]): 7560 nM

O=C[C@@H](C[C@H]1CCNC1=O)NC(=O)[C@H]1[C@@H]2CCC[C@@H]2CN1C(=O)COc1ccc(Cl)cc1Cl
bioavailability [9]: 14.6%
EC50 (SARS-CoV-2 [10]): 540 nM
EC50 (SARS-CoV-2 [11]): 1.1 nM
bioavailability [12]: 76.2%

CC(C)(C)NC(=O)[C@@H](c1cccnc1)N(C(=O)c1ccno1)c1ccc(-c2ccccc2)cc1
IC50 [6]: 2470 nM
CC50 [7]: > 200000 nM

Cc1ncsc1-c1ccc(CNC(=O)[C@@H]2C[C@@H](O)CN2C(=O)[C@@H](NC(=O)CCOCCOCCOCCn2nnc(COC(=O)N[C@@H](CC(C)C)C(=O)N[C@H](C=O)C[C@@H]3CCNC3=O)c2C)C(C)(C)C)cc1
EC50 [5]: 950 nM

CC(C)C[C@H](NC(=O)Oc1ccc(OCc2cn(CCCCCOCC(=O)Nc3cccc4c3C(=O)N(C3CCC(=O)NC3=O)C4=O)nn2)cc1)C(=O)N[C@H](CO)C[C@@H]1CCNC1=O (stereo partly drawn)
EC50 [13]: 250 nM

O=C1NCC[C@H]1C[C@H](NC(=O)[C@@H]1[C@H]2CCC[C@H]2CN1C(=O)COc1ccc(Cl)cc1Cl)C(=O)CF
EC50 (SARS-CoV-2 [14]): 240 nM
IC50 [15]: 18 nM
bioavailability [16]: 55.1%

Cc1ncsc1-c1ccc(CNC(=O)[C@@H]2C[C@@H](O)CN2C(=O)[C@@H](NC(=O)CCC(=O)NCCOCCn2nnc(COc3ccc(OC(=O)N[C@@H](CC(C)C)C(=O)N[C@H](C=O)C[C@@H]4CCNC4=O)cc3)c2C)C(C)(C)C)cc1
EC50 [5]: 120 nM

Cc1c(COC2CCC(OC(=O)N[C@@H](CC(C)C)C(=O)N[C@H](C=O)C[C@@H]3CCNC3=O)CC2)nnn1CCOCCNC(=O)CCC(=O)Nc1cccc2c1C(=O)N(C1CCC(=O)NC1=O)C2=O (stereo partly drawn)
EC50 [13]: 620 nM

Cc1ncsc1-c1ccc(CNC(=O)[C@@H]2C[C@@H](O)CN2C(=O)[C@@H](NC(=O)CCOCCOCCOCCn2nnc(COc3ccc(OC(=O)N[C@@H](CC(C)C)C(=O)N[C@H](CO)C[C@@H]4CCNC4=O)cc3)c2C)C(C)(C)C)cc1
EC50 [5]: 750 nM

O=C1c2c(O)cc(O)cc2O[C@H](c2cc(O)c(O)c(O)c2)[C@H]1O [AMPELOPSIN]
EC50 (SARS-CoV-2 [3]): 13600 nM

N#C[C@H](C[C@@H]1CCCNC1=O)NC(=O)[C@H](CC1CC1)NC(=O)c1cc2cccc(Cl)c2[nH]1 [POMOTRELVIR]
EC90 (SARS-CoV-2 [17]): 78 nM
